Where a name gives a salt, the structure may show the parent alone.

The subject of data set [1] is other Hsps. Put plainly: Other in vitro HSP modulating effects (Table 3). It is filed as cell-based, mouse and human. Further details: key: +: co-inducing activity; −: silencing activity; 0: with the experimental methods applied no other HSP modulating effects could be identified. On the procedure:
(§1) The Hsp co-inducing effect of the compounds on stress response was tested on B16 mouse melanoma and SHSY5Y human neuroblastoma cell lines stably transfected with Hsp promoter probing plasmids. This kind of promoter probing, using the promoter region of a given gene conjugated with fluorescent protein is used as a best and fastest test system for finding drugs which modulate the activity of the gene followed by the given promoter (Wyshocka et al., Mol. Cel. Biochem. 215:153-156, 2000).
(§2) Reporter plasmids, containing the Hsp70 and/or Hsp25 promoter conjugated to either YFP or GFP (yellow or green fluorescent protein), were stably transfected into the cells and the expression of YFP or GFP was followed by flow cytometry. Cells were either kept at 37° C. or exposed to heat shock at 42° C. for 1 hour followed by a 16 hour recovery period at 37° C. in the presence or absence of different concentrations of the test compound. After recovery the expression of YFP or GFP which is in straight correlation with the promoter activity of Hsp70 or Hsp27 genes was followed by measuring the fluorescence intensity of the cells by flow cytometry. Fluorescence intensity is in straight correlation with the amount of fluorescent protein (GFP or YFP) produced under the control of hsp promoter. The mean fluorescence intensity of YFP or GFP produced is shown as “Hsp promoter activity”.
(§3) Cells were homogenously distributed on 6-well plates in 1×10^5 cells/well density. B16-pHsp25-GFP and B16-pHsp70-YFP melanoma cells were grown in RPMI-1640 medium supplemented with 10% Fetal bovine serum (FBS), penicillin (200 units/ml), streptomycin (200 μg/ml) and 2 mM L-Glutamine. For maintaining the SH-SY5Y-pHsp25-GFP and SH-SY5YpHsp70-YFP neuroblastoma cell lines Dulbecco's modified Eagle's medium (DMEM-F-12) containing 10% FBS, 2 mM L-Glutamine, penicillin (200 units/ml), streptomycin (200 μg/ml) and MEM non-essential amino acids were used. Before the treatments both cell lines were incubated at 37° C. in a saturated humidity atmosphere containing 95% air and 5% CO2. After 24 h incubation cells were pretreated with compounds of the invention in four different concentrations (usually in 3; 10; 20 and 50 μM) 30 min before the heat shock at 42° C. for 1 h and then incubated further at 37° C. for 16 h (recovery period). After this procedure cells were trypsinized and suspensed in 500 μl serum-free DMEM-F12 medium. The changes in cells' fluorescence were detected using BD FACSCalibur flow cytometer.
SY-SY5Y and B16 cells were extracted in NP-40 lysis buffer (PBS pH 7.4, 1% protease inhibitor coctail and 1% Triton X-100). The cell extracts were then constantly agitated at 4° C. for 2 h. The cell extracts were centrifuged at 12000×g for 30 min and supernatants were saved. After the protein concentration measurement 15 μg of total protein was separated by sodium dodecyl sulfate-polyacrylamide gel electrophoresis (SDS-PAGE) under reducing conditions according to the method of Laemmli. Proteins were blotted onto PVDF membrane. The blot was incubated overnight at 4° C. in the presence of mouse α-Hsp25, α-Hsp70, α-Hsp60 és α-Hsp90 monoclonal antibodies diluted in PBS. Then, the membrane was washed three times in PBS-0.05% Tween and incubated for 1 h in peroxidase-conjugated anti-mouse IgG antibody diluted 1:50000 in PBS containing 3% non-fat dry milk. The immune complexes were detected with chemo-luminescent substrate of peroxidase according to the supplier's instructions. Images taken from the membranes were analyzed using AlphaEase FC software.

Data set [2] concerns Hsp70 promoter. Put plainly: Hsp promoter probing, Hsp70 promoter-YFP reporter, flow cytometry (Table 3). More on the design: key: +: co-inducing activity; −: silencing activity; 0: with the experimental methods applied no other HSP modulating effects could be identified. The conditions noted are these: heat shock 42° C. 1 h, 16 h recovery; B16 or SHSY5Y reporter cells, cell line per value not stated. It is filed as cell-based, mouse and human. On the procedure:
as §1
The Hsp encoding genes are transactivated through the binding of HSF to the heat shock element found on the DNA upstream of the Hsp genes, in the so called promoter region. In the absence of heat stress, the heat shock factors are present as monomers. Upon heat stress, however, the heat shock factors form trimers, which are the active components, able to bind to heat shock elements. Once HSF is bound to the heat shock element in the promoter of Hsp genes, the gene following the promoter region is transcriptionally active.
as §2, §3
A general note: Flow cytometry measures light scatter and fluorescence of single cells or particles in a stream.

For the molecule `COC(=O)C1=C(C)N(C)C(C)=C(C(=O)OC)C1c1ccc(F)cc1` [Example 2, Dimethyl 1,2,6-trimethyl-4-(4-fluorophenyl)-1,4-dihydropyridine-3,5-dicarboxylate], the melting point (as a rule, the temperature, or range, at which the solid turns liquid) was in the range of 184 to 185 °C. Besides, the “Other in vitro effects” value in data set [1] is reported as 0. In addition, in data set [2], the Hsp70 modulation result is listed as “+”.
As for `COC(=O)C1=C(C)N(C)C(C)=C(C(=O)OC)C1c1ccccc1` [Example 3, Dimethyl 1,2,6-trimethyl-4-phenyl-1,4-dihydropyridine-3,5-dicarboxylate], the melting point is 201 to 203 °C. Further, in data set [1], the “Other in vitro effects” value is listed as 0. Also, the Hsp70 modulation entry in data set [2] was “+”.
On to `COC(=O)C1=C(C)N(C)C(C)=C(C(=O)OC)C1c1cccc(C(F)(F)F)c1` [Example 7, Dimethyl 1,2,6-trimethyl-4-(3-trifluoromethylphenyl)-1,4-dihydropyridine-3,5-dicarboxylate], for which the melting point is 118 to 119 °C. For the same molecule, the “Other in vitro effects” value in data set [1] is listed as 0. The Hsp70 modulation entry in data set [2] was “+”.
For `COC(=O)C1=C(C)N(C)C(C)=C(C(=O)OC)C1c1ccccc1C(F)(F)F` [Example 8, Dimethyl 1,2,6-trimethyl-4-(2-trifluoromethylphenyl)-1,4-dihydropyridine-3,5-dicarboxylate], the melting point lay in the range of 168 to 170 °C. In addition, in data set [1], the “Other in vitro effects” value was determined as 0. Moreover, the Hsp70 modulation result in data set [2] is reported as “+”.
The like results for `COC(=O)C1=C(C)N(C)C(C)=C(C(=O)OC)C1c1ccc(-n2ccnc2)cc1` [Example 10, Dimethyl 1,2,6-trimethyl-4-(4-(1-imidazoly)lphenyl)-1,4-dihydropyridine-3,5-dicarboxylate] were, in that order, 201 to 202 °C, 0 and “+”.
`COC(=O)C1=C(C)N(C)C(C)=C(C(=O)OC)C1c1cccnc1` [Example 12, Dimethyl 1,2,6-trimethyl-4-(3-piridyl)-1,4-dihydropyridine-3,5-dicarboxylate] showed a melting point of 173 to 175 °C. Besides, the “Other in vitro effects” value in data set [1] turned out to be 0. Further, the Hsp70 modulation result in data set [2] was “−”.
With `COC(=O)C1=C(CCN(C)C)N(C)C(CCN(C)C)=C(C(=O)OC)C1c1cc(F)cc(F)c1` [Example 25, Dimethyl 4-(3,5-Difluorophenyl)-2,6-bis-(2-dimethylaminoethyl)-1-methyl-1,4-dihydropyridine-3,5-dicarboxylate dihydrochloride], the “Other in vitro effects” value in data set [1] turned out to be 0. The Hsp70 modulation entry in data set [2] is recorded as “+”.
For the molecule `COC(=O)C1=C(CCN(C)C)N(C)C(CCN2CCCCC2)=C(C(=O)OC)C1c1ccc(C(F)(F)F)cc1` (centres unmarked) [Example 30, Dimethyl 2-(2-dimethylamino-ethyl)-1-methyl-6-(2-piperidin-1-yl-ethyl)-4-(4-trifluoromethylphenyl)-1,4-dihydropyridine-3,5-dicarboxylate dihydrochloride], the “Other in vitro effects” value in data set [1] is on record as 0. In addition, the Hsp70 modulation entry in data set [2] is “+”.
The like results for `CCOC(=O)C1=CN(Cc2ccccc2)C=C(C(=O)OCC)C1c1ccccc1` [Example 38, Diethyl 1-benzyl-4-phenyl-1,4-dihydropyridine-3,5-dicarboxylate, reference compound] were, in that order, 0 and “+”.
On the same counts, the results for `COC(=O)C1=C(CCN(C)C)N(C)C(CCN2CCc3cc(OC)c(OC)cc3C2)=C(C(=O)OC)C1c1ccc(C(F)(F)F)cc1` (centres unmarked) [Example 42, Dimethyl 2-[2-(6,7-dimethoxy-1,2,3,4-tetrahydroisoquinolin-2-yl)-ethyl]-6-(2-dimethylamino-ethyl)-1-methyl-4-(4-trifluoromethylphenyl)-1,4-dihydropyridine-3,5-dicarboxylate dihydrochloride] are 0 and “+”.
